According to patent EP0497258B1, “Use of adenosine antagonists in the prevention and treatment of pancreatitis and ulcer” (FUJISAWA PHARMACEUTICAL CO., LTD., priority 1991, dated 1992):

Experiments:
Type in all cases: in vivo, Sprague-Dawley rats
[1] = test system: ischemia induced gastric ulcer; experiment: Effect on ischemia induced gastric ulcer (left gastric artery ligation)
Description: Male Sprague-Dawley rats (9 or 10 rats for one group) weighing 230 to 270 g were fasted for 24 hours but allowed free access to water ad libitum.
Under ether anesthesia, the abdomen was incised and the left gastric artery was ligated. After closing the abdomen, animals were maintained an regular feed with water ad libitum. The test compound (1) (10 mg/kg/5 ml) for the test group or vehicle (0.1 % methyl cellulose, 5 ml/kg) for the control group was given orally twice a day (9:00 a.m. and 5:00 p.m.) from the first day after the operation for 3 consecutive days. On the fourth day after the operation, the test compound (for the test group) or vehicle (for the control group) was given at 9:00 a.m. and animals were killed at.5:00 p.m.. The stomach was examined for ulcers.
Ulcer index was expressed as lesion area (mean ± standard error).

[2] = test system: CHA(N^6-cyclohexyladenosine)-induced pancreatitis; experiment: Effect on CHA-induced pancreatitis (serum amylase); details: 10 mg/kg orally 30 minutes before CHA; for inhibition %: inhibition of CHA-induced serum amylase increase; for serum amylase (10^3 IU/ℓ): male rats, CHA 3.2 mg/kg orally, blood after 24 hours, Normal 4.1 ± 0.2, Control 28.3 ± 10.0
Description: Male Sprague-Dawley rats, weighing 245-260 g, were deprived of food but allowed free access to water for 24 hours CHA was given orally at a dose of 3.2 mg/kg. After 24 hours, animals were killed and blood samples were collected. Subsequently, the blood serum was prepared and amylase concentration was determined. The test compounds (1) to (5) (10 mg/kg) or vehicle (to control group) was given orally 30 minutes before CHA administration. In Normal group, vehicle was given instead of CHA.

[3] = test system: serum amylase increment induced by caerulein administration with water immersion restraint stress; experiment: Effect on serum amylase increment induced by caerulein administration with water immersion restraint stress; details: male rats, caerulein 50 µg/kg s.c. + water immersion restraint at 23°C for 7 hours; 1 mg/kg orally 30 minutes before caerulein; mean ± standard error; control group 22.5 ± 3.3
Description: Male Sprague-Dawley rats (6 rats for one group) weighing 210 to 240 g were fasted for 24 hours but allowed free access to water ad libitum. Immediately after caerulein administration (50 µg/kg/2 ml s.c.), rats were placed in restraint cages and immersed in water at 23°C for 7 hours. The animals were killed and blood sample was collected from femoral blood vessels. Serum amylase was measured using Neo-Amylase Test "DAIICHI" (trademark, prepared by DAIICHI KAGAKU YAKUHIN). The test compound (1) (1 mg/kg/5 ml) for the test group or vehicle (0.1 % methyl cellulose, 5 ml/kg) for the control group was given orally 30 minutes before caerulein administration.
Serum amylase concentration was expressed as mean ± standard error.

[4] = test system: CHA(N^6-cyclohexyladenosine)-induced gastric ulcer; experiment: Effect on CHA-induced gastric ulcer; details: 10 mg/kg orally 30 minutes before CHA; for inhibition %: inhibition of ulcer index vs Control; for ulcer index (mm^2): male rats, CHA 1 mg/kg subcutaneously, stomachs examined after 7 hours, Control 65.0 ± 18.4
Description: Male Sprague-Dawley rats, weighing 225-259 g, were deprived of food but allowed free access to water for 24 hours. CHA was given subcutaneously at a dose of 1 mg/kg. After 7 hours, animals were killed and stomachs were removed. Subsequently, the stomachs were inflated by injecting 12 ml of 2% formalin to fix the inner layer of gastric walls. Ten minutes later, they were incised along the greater curvature and examined for lesions. Test Compounds (1) to (5) (10 mg/kg) or vehicle (to control group) was given orally 30 minutes before CHA administration.

Compound: O=C(C=Cc1c(-c2ccccc2)nn2ccccc12)N1CCCC[C@@H]1CCO [Test Compound (1), (2R)-1-[3-(2-Phenylpyrazolo[1,5-a]pyridin-3-yl)acryloyl]-2-(2-hydroxyethyl)piperidine]
- inhibition % ([1]; inhibition of ulcer index vs control group, 10 mg/kg orally twice a day): 45.8%
- ulcer index (mm^2) ([1]; male rats, left gastric artery ligated, 10 mg/kg orally twice a day from first day after operation, killed on fourth day, lesion area, mean ± standard error, control group 26.2 ± 6.0): 14.2 ± 4.0 mm^2
- inhibition % [2]: 69.4%
- serum amylase (10^3 IU/ℓ) [2]: 11.5 ± 5.8 10^3 IU/ℓ
- serum amylase (10^3 IU/L) [3]: 13.8 ± 1.0 10^3 IU/L
- inhibition % [4]: 99.4%
- ulcer index (mm^2) [4]: 0.4 ± 0.4 mm^2

Compound: O=C(O)CCCn1nc(-c2c(-c3ccccc3)nn3ccccc23)ccc1=O [Test Compound (2), 3-[2-(3-Carboxypropyl)-3-oxo-2,3-dihydropyridazin-6 yl]-2-phenylpyrazolo[1,5-a]pyridine]
- inhibition % [2]: 99.6%
- serum amylase (10^3 IU/ℓ) [2]: 4.2 ± 0.3 10^3 IU/ℓ
- inhibition % [4]: 97.1%
- ulcer index (mm^2) [4]: 1.9 ± 1.9 mm^2

Compound: O=C(O)C[C@H]1CCCCN1C(=O)C=Cc1c(-c2ccccc2)nn2ccccc12 [Test Compound (3), (2R)-1-[3-(2-Phenylpyrazolo[1,5-a]pyridin-3-yl)acryloyl]-2-(carboxymethyl)piperidine]
- inhibition % [2]: 92.6%
- serum amylase (10^3 IU/ℓ) [2]: 5.9 ± 1.0 10^3 IU/ℓ
- inhibition % [4]: 99.8%
- ulcer index (mm^2) [4]: 0.1 ± 0.1 mm^2
